Experiment [1] has as its target T1, KCC2 (Rattus norvegicus, UniProt Q63633).
T1 construct: endogenous in cells; host or cells: primary rat hippocampal neurons (E18-19 Sprague-Dawley)
T1 sequence (Q63633 1-1116 isoform Q63633-2): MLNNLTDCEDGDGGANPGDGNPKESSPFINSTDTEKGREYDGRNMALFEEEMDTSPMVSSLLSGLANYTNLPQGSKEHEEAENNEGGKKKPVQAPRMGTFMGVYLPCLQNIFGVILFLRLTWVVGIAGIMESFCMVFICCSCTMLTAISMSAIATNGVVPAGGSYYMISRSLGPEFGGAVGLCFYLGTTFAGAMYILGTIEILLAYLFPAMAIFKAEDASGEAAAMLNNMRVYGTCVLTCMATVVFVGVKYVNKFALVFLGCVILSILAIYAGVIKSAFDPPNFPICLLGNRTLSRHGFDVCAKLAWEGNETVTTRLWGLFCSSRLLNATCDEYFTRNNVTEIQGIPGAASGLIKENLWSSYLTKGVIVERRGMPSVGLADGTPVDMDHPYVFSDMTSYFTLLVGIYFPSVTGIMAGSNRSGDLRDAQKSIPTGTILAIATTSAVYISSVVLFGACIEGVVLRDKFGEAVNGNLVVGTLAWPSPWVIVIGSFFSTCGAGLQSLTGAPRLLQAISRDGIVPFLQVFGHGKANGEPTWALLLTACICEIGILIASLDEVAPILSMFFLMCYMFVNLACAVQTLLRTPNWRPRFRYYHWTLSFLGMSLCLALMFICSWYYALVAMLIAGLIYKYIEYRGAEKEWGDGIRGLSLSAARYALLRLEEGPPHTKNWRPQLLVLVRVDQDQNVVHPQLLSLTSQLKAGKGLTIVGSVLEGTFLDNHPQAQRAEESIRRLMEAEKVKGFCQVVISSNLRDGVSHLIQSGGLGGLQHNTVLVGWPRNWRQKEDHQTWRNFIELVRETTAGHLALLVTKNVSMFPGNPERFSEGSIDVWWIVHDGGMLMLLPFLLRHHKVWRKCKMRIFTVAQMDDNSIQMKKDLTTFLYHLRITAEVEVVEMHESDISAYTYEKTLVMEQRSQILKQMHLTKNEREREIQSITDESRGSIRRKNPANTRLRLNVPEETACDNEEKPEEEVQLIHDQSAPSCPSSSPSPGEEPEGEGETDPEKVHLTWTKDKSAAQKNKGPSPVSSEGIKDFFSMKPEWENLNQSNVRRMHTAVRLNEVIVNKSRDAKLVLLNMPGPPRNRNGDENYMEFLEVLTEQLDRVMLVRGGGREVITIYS
In words: Somato-dendritic EGABA gradient (chloride extrusion), whole-cell patch clamp of hippocampal neurons. It is filed as cell-based.

Experiment [2] has as its target T2, recombinant human WNK1 (Homo sapiens, UniProt Q9H4A3).
T2 construct: purchased Eurofins Discovery (KinaseProfiler, contractor)
In words: Radiometric kinase profiling assay. It is filed as biochemical. The following applies: 70 μM ATP. The procedure: (§1) Kinase activity profiles (data not shown) were performed using radiometric assays to measure kinase catalytic activity for PCPZ concentrations ranging 0.1-500 μM in DMSO or CLP257 concentrations ranging 0.1-1000 μM in DMSO, in the presence of 70 μM ATP. Equimolar DMSO concentrations were used as control. Additional information on the kinase profiler assay can be obtained from the contractor's website. (https://www.eurofinsdiscoveryservices.com/cms/cms-content/services/in-vitro-assays/kinases/kinase-profiler).

Experiment [3] addresses T3, recombinant human OSR1 (Homo sapiens, UniProt O95747).
T3 construct: purchased Eurofins Discovery (KinaseProfiler, contractor)
The experiment is described as follows: Radiometric kinase profiling assay. Type of experiment: biochemical. The following applies: 70 μM ATP. As to the method: as §1

In experiment [4] the target is T4, recombinant human WNK3 (Homo sapiens, UniProt Q9BYP7).
T4 construct: purchased Eurofins Discovery (KinaseProfiler, contractor)
T4 sequence (Q9BYP7 whole entry): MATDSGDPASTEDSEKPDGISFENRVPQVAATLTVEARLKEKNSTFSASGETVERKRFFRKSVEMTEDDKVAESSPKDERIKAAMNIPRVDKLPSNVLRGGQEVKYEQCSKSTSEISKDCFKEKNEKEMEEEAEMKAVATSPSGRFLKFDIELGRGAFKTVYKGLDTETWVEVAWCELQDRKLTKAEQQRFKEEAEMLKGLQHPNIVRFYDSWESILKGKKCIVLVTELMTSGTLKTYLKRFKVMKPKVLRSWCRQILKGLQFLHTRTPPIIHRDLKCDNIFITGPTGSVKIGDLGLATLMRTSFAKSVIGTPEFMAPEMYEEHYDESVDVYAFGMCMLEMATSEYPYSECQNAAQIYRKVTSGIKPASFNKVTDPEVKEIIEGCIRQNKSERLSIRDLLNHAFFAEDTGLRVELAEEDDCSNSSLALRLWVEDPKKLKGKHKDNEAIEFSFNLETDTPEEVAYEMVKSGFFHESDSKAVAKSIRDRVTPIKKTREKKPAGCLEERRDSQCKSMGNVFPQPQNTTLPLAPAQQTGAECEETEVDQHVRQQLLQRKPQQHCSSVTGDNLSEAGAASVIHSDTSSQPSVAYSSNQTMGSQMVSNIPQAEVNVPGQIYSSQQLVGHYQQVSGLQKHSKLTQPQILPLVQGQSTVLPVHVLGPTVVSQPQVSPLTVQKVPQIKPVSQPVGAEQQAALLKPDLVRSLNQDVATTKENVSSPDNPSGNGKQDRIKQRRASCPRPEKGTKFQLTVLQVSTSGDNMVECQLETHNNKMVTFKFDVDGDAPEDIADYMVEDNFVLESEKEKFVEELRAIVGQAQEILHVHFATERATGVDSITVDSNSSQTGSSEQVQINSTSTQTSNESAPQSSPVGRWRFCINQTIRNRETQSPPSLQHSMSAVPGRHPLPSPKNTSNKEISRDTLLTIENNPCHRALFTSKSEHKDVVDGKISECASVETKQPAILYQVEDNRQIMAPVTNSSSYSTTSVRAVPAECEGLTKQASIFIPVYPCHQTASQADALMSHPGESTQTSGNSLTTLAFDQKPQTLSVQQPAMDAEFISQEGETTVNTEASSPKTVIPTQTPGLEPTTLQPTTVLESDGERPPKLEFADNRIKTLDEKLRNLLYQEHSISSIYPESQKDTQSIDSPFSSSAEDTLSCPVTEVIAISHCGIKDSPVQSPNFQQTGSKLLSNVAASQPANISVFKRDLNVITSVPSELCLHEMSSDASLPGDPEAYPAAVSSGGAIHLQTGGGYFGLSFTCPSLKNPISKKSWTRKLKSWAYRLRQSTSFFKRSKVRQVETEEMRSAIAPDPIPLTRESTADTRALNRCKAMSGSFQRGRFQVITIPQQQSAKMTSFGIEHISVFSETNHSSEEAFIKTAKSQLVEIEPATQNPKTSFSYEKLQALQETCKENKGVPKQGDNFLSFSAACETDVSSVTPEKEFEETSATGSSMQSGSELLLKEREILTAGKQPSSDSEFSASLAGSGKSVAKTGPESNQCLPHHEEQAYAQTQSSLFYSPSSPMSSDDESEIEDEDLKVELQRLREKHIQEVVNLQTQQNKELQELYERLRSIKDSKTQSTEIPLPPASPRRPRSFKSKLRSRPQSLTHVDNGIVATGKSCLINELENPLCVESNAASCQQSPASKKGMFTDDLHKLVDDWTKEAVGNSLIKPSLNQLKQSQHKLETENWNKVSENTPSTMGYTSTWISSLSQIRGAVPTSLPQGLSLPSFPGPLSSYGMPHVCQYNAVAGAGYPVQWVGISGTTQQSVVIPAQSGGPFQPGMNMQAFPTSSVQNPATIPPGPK
The experiment is described as follows: Radiometric kinase profiling assay. Type of experiment: biochemical. The following applies: 70 μM ATP. As to the method:
as §1

The target in experiment [5] is T5, recombinant human STK39 (SPAK) (Homo sapiens, UniProt Q9UEW8).
T5 construct: purchased Eurofins Discovery (KinaseProfiler, contractor)
The experiment is described as follows: Radiometric kinase profiling assay. The following applies: 70 μM ATP. It is filed as biochemical. The procedure:
as §1

T3 sequence (O95747 whole entry): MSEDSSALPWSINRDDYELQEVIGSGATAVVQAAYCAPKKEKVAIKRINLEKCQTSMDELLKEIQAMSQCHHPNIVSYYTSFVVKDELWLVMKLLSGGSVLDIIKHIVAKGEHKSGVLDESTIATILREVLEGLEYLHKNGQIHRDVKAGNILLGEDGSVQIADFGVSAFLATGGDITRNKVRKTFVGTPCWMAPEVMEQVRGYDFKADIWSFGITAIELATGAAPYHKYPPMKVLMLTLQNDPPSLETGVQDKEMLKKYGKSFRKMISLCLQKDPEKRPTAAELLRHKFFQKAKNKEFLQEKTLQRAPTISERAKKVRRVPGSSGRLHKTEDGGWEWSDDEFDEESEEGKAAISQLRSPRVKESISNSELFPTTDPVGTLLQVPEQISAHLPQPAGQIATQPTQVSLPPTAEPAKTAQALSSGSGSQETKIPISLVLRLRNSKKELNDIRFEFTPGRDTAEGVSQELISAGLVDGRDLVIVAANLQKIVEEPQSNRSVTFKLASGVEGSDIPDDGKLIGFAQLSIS
T2 sequence (Q9H4A3 whole entry): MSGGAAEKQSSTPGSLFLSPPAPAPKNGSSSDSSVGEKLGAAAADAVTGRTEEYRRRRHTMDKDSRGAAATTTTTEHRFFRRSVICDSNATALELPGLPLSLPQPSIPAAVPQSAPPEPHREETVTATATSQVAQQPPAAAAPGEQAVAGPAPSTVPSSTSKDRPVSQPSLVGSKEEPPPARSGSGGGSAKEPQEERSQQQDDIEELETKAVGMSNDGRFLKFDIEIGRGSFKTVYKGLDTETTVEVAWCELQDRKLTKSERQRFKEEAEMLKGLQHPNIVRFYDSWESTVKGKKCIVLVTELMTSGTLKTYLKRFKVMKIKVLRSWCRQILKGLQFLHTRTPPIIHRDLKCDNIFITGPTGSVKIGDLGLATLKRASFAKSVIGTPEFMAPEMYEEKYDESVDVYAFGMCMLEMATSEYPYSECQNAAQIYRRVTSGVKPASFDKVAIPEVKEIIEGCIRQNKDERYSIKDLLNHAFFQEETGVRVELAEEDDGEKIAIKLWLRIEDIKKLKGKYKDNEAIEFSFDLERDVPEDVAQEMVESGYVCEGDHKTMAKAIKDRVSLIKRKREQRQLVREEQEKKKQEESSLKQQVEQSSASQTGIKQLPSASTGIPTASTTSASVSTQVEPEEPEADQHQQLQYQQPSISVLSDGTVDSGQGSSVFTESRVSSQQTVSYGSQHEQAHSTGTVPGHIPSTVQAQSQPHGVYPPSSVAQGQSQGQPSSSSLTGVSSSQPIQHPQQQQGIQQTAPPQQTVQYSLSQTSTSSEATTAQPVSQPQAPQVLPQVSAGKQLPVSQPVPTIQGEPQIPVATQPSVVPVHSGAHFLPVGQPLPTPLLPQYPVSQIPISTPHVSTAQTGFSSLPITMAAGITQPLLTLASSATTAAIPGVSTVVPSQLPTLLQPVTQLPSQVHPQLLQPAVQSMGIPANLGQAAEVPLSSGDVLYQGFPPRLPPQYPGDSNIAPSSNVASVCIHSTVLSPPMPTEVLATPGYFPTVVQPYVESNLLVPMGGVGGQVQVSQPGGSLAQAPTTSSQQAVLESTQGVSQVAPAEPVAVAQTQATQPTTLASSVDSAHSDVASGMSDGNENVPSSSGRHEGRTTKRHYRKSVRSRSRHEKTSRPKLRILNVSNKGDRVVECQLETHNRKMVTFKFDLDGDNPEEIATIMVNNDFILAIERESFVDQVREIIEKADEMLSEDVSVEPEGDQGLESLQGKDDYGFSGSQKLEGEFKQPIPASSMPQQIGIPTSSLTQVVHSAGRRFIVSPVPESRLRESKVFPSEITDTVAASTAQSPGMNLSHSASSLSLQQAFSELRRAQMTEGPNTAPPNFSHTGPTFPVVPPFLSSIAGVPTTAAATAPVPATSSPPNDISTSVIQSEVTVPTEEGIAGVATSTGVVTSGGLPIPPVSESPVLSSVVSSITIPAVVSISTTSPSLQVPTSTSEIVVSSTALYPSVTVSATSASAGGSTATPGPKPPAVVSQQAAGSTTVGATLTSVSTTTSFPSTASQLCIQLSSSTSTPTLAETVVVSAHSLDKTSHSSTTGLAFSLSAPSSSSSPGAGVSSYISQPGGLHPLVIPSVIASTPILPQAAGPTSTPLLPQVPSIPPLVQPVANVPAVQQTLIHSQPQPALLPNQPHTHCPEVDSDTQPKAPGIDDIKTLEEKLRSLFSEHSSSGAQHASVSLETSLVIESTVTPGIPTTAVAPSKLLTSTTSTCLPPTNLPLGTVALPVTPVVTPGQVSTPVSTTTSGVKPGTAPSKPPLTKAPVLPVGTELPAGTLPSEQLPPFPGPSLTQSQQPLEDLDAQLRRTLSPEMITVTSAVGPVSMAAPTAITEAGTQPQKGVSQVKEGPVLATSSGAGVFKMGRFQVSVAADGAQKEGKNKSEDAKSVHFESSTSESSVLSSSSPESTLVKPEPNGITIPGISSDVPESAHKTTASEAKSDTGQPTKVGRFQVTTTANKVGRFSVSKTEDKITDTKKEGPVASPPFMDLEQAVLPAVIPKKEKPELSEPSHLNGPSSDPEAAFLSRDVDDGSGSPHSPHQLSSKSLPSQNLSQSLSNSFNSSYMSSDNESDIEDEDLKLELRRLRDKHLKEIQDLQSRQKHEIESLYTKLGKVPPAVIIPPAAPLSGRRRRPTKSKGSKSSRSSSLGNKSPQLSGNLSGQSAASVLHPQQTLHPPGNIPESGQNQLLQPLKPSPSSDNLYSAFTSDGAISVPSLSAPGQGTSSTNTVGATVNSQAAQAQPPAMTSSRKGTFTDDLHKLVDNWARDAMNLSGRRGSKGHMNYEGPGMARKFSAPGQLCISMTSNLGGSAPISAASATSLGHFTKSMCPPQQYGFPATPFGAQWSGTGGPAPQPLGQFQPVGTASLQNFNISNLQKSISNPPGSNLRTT

`CN1CCN(CCCN2c3ccccc3Sc3ccc(Cl)cc32)CC1` [PCPZ, prochlorperazine]: the “somato-dendritic gradient of EGABA (ΔEGABA)” value in experiment [1] (10 μM PCPZ, 2 h, isoguvacine 100 μM, control 6.56±0.83) turned out to be 11.50±1.53 mV/100 μm. Besides, the “inhibition of WNK1 kinase activity” value in experiment [2] (PCPZ 0.1-500 μM) was “no direct inhibitory effect”. Besides, the “inhibition of OSR1 kinase activity” value in experiment [3] (PCPZ 0.1-500 μM) is “no direct inhibitory effect”. The “inhibition of WNK3 kinase activity” value in experiment [4] (PCPZ 0.1-500 μM) is on record as “no direct inhibitory effect”. Further, in experiment [5] (PCPZ 0.1-500 μM), the “inhibition of SPAK kinase activity” value is “no direct inhibitory effect”.

For `O=C1N=C(N2CCCCN2)S/C1=C\c1ccc(F)cc1O` [CLP257, (5Z)-5-[(4-Fluoro-2-hydroxyphenyl)methylene]-2-(tetrahydro-1-(2H)-pyridazinyl)-4(5H)-thiazolone], in experiment [1] (100 μM CLP257, 2 h, RubiGABA 30 μM uncaging, control 5.32±1.08), the “somato-dendritic gradient of EGABA (ΔEGABA)” value turned out to be 9.70±1.13 mV/100 μm. Moreover, the “inhibition of WNK1 kinase activity” value in experiment [2] (CLP257 0.1-1000 μM) is “no direct inhibitory effect”. Further, the “inhibition of OSR1 kinase activity” value in experiment [3] (CLP257 0.1-1000 μM) is “no direct inhibitory effect”. For the same molecule, in experiment [4] (CLP257 0.1-1000 μM), the “inhibition of WNK3 kinase activity” value is recorded as “no direct inhibitory effect”. Also, in experiment [5] (CLP257 0.1-1000 μM), the “inhibition of SPAK kinase activity” value is “no direct inhibitory effect”.

The record behind these values is patent US20240197728A1, “METHODS AND PHARMACEUTICAL COMPOSITIONS FOR TREATING REFRACTORY EPILEPSY” (INSERM (INSTITUT NATIONAL DE LA SANTÉ ET DE LA RECHERCHE …, priority 2021, published 2024).
